Earlier results in patent publication US20240264148A1, “SYSTEM AND METHOD OF IDENTIFYING BIOMARKERS FOR CHEMO-RESISTANCE IN CANCER AND IDENTIFYING TARGETS THAT CAN REVERSE CHEMO-RESISTANCE IN CANCER” (OROC, priority 2019, published 2024).

Tested on: recurrent ovarian cancer
Conditions: patients

For Cc1nc(Nc2ncc(C(=O)Nc3c(C)cccc3Cl)s2)cc(N2CCN(CCO)CC2)n1 [Dasatinib], the safety and tolerability is given as “safe to use as a drug with good tolerability”.
